Assay results as given in ChEMBL document CHEMBL1141041, “Discovery of halogenated eurypamide B analogues as inhibitors of lipid droplet accumulation in macrophages” (Bioorg Med Chem Lett, 2005).

Assay: Inhibition of lipid droplets accumulation in mouse peritoneal macrophages as a model of macrophage-derived foam-cell formation
Assay type: functional

Row | Structure (SMILES) | IC50 [µM]
1 | COC(=O)[C@@H]1Cc2ccc(cc2)Oc2cc(ccc2O)C[C@H](N)C(=O)N[C@@H]([C@@H](C)O)C(=O)N1 | > 13.5
2 | C[C@@H](O)[C@@H]1NC(=O)[C@@H](N)Cc2ccc(O)c(c2)Oc2ccc(cc2)C[C@@H](C(=O)O)NC1=O | > 22.6
3 | C[C@@H](OCc1ccccc1)C1NC(=O)[C@@H](NC(=O)Oc2ccccc2)Cc2ccc(O)c(c2)Oc2ccc(cc2)C[C@@H](C(=O)O)NC1=O (stereo partly specified) | 3.1
4 | C[C@@H](O)C1NC(=O)[C@@H](NC(=O)OC(C)(C)C)Cc2ccc(O)c(c2)Oc2ccc(cc2)C[C@@H](C(=O)O)NC1=O (stereo partly specified) | > 12.1
5 | COC(=O)[C@@H]1Cc2ccc(cc2)Oc2cc(ccc2O)C[C@H](N)C(=O)NC([C@@H](C)OCc2ccccc2)C(=O)N1 (stereo partly specified) | > 12.1
6 | C[C@@H](OCc1ccccc1)C1NC(=O)[C@@H](NC(=O)OC(C)(C)C)Cc2ccc(O)c(c2)Oc2ccc(cc2)C[C@@H](C(=O)O)NC1=O (stereo partly specified) | 3.2
